Like-named read-outs stand apart in the source and are kept apart here.
Tests used:
[1] = test system: multidrug-resistant COLO 320 cells; assay: Drug combination assay with doxorubicin (Chou-Talalay, MTT); type: cell-based, human; conditions: for CI at ED50 (combination index): combination with doxorubicin, COLO 320, 72 h, Chou-Talalay; for Interaction: interaction with doxorubicin in COLO 320, class from CI
Method: One promising approach involves the discovery of new bioactive natural products. To explore this, a chemosensitivity assay was conducted to examine the in vitro interactions between the isolated compounds and the antineoplastic agent doxorubicin, a substrate of P-glycoprotein (P-gp). A combination chemotherapy model was applied using human COLO 320 colon carcinoma cells. The combination index (CI), calculated according to the Chou–Talalay method, was used to evaluate drug–drug interactions, classifying them as synergistic (CI < 1), additive (CI = 1), or antagonistic (CI > 1) (Table 4).
The multidrug-resistant COLO 320 cell line was used to perform the drug combination assay. Doxorubicin (2 mg/mL, Teva Pharmaceuticals, Budapest, Hungary) was serially diluted horizontally, starting with 8.6 µM. The resistance modifier was subsequently diluted vertically, with the starting concentration determined based on the IC50 value. Doxorubicin was diluted horizontally in 100 µL, while the resistance modifiers were diluted vertically in 50 µL in the microtiter plate. The compounds and doxorubicin were prepared as separate dilutions. The cells were seeded at a density of 6 × 10^3 cells per well into 100 µL of medium and incubated for 24 h at 37 °C in a 5% CO2 atmosphere prior to treatment. After this period, the culture medium was removed, and 50 µL of fresh medium was added to each well, followed by the addition of 50 µL of the diluted compounds, resulting in a final volume of 200 µL per well. The plates were then incubated for 72 h at 37 °C under 5% CO2. The cell viability was assessed at the end of incubation using the MTT assay, as described previously. Drug interactions were analyzed using CompuSyn software (Version 1.00).
The dose–response curves for individual agents and their combinations were fitted to a linear model based on the median-effect equation to calculate the median effective dose (IC50) and the slope (m). The quality of the fit was evaluated using the linear correlation coefficient (r), and only data with r > 0.90 are reported. The extent of drug interaction was quantified using the combination index (CI), where CI ≈ 1 indicated an additive effect, CI < 1 signified synergy, and CI > 1 denoted antagonism.

[2] = test system: COLO 205 (doxorubicin-sensitive) human colonic adenocarcinoma cells; assay: MTT antiproliferative assay, COLO 205; type: cell-based; conditions: read-out: IC50 (µM) ± SD COLO 205
Method: (§1) The antiproliferative effects of the isolated phenanthrenes (compounds 1–19) were evaluated using human cancer cell lines, including doxorubicin-sensitive colonic adenocarcinoma COLO 205 and multidrug-resistant colonic adenocarcinoma COLO 320/MDR-LRP (which expresses P-glycoprotein [MDR1] and LRP), as well as non-cancerous human lung fibroblast CCD-19Lu cells. CCD-19Lu was chosen because it is a well-characterized, non-tumorigenic cell line commonly used to assess general cytotoxicity. Moreover, data from the literature support the use of lung fibroblast cell lines—including CCD-19Lu—as normal controls in studies involving colon cancer cells such as Colo 205 and Colo 320 [33]. The thiazolyl blue tetrazolium bromide (MTT) assay was employed to determine the concentration of each compound required to inhibit 50% of the cell viability (IC50), as summarized in Table 3.
(§2) The human colon adenocarcinoma cells—COLO 205 (CCL-222, doxorubicin-sensitive) and COLO 320/MDR-LRP (ATCC-CCL-220.1, multidrug-resistant, expressing P-gp)—were cultured in RPMI 1640 medium supplemented with 10% heat-inactivated fetal bovine serum, 2 mM of L-glutamine, 1 mM of sodium pyruvate, and 100 mM of HEPES. The non-cancerous human lung fibroblast cell line CCD-19Lu was maintained in Eagle’s Minimal Essential Medium (EMEM; containing 4.5 g/L of glucose) supplemented with a non-essential amino acid mixture, selected vitamins, and 10% heat-inactivated fetal bovine serum. All of the cell lines were detached using 0.25% trypsin and 0.02% EDTA for 5 min at 37 °C. The cell lines were obtained from LGC Promochem (Teddington, England).
(§3) Human colonic adenocarcinoma cell lines—doxorubicin-sensitive COLO 205 and multidrug-resistant COLO 320—as well as the non-cancerous human lung fibroblast cell line CCD-19Lu were used to evaluate the effects of the test compounds on cell proliferation. The assays were conducted in 96-well flat-bottomed microtiter plates. Stock solutions of the compounds were prepared in dimethyl sulfoxide (DMSO), with the final DMSO concentration kept below 1% in all samples. The compounds were diluted in 100 µL of the appropriate culture medium. Adherent cells were cultured in EMEM supplemented with 10% heat-inactivated fetal bovine serum and seeded into 96-well plates at a density of 6 × 10^3 cells per 100 µL per well. The cells were allowed to adhere for 24 h at 37 °C in a humidified incubator with 5% CO2. After incubation, the medium was removed and replaced with 100 µL of fresh medium. Serial dilutions of the compounds were prepared in separate plates and added to the cells, starting from a concentration of 100 µM with twofold serial dilutions (final concentration range: 100–0.19 µM). The cells were then incubated for 72 h at 37 °C. At the end of the incubation period, 20 µL of thiazolyl blue tetrazolium bromide (MTT) solution (5 mg/mL, Sigma) was added to each well. After 4 h of incubation at 37 °C, 100 µL of 10% sodium dodecyl sulfate (SDS) in 0.01 M HCl was added to solubilize the formazan crystals, and the plates were incubated overnight at 37 °C. Cell viability was assessed by measuring the optical density (OD) at 540/630 nm using a Multiscan EX ELISA reader (Thermo Labsystems, Cheshire, WA, USA).
(§4) The inhibitory concentration that reduced cell growth by 50% (IC50) was determined from the dose–response curves. The percent inhibition was calculated using the formula100 − ((OD_sample − OD_medium control)/(OD_cell control − OD_medium control)) × 100
(§5) Dose–response curves were generated by plotting the percent inhibition against the logarithm of the compound concentrations and fitted using Prism5 software (Version 6, GraphPad Software Inc., San Diego, CA, USA). The IC50 values were derived from four independent experiments conducted in parallel for each cell line and are reported as the mean values.

[3] = test system: CCD-19Lu non-cancerous human lung fibroblast cells; assay: MTT antiproliferative assay, CCD-19Lu; type: cell-based; conditions: 72 h, CCD-19Lu non-tumorigenic fibroblasts, read-out: IC50 (µM) ± SD CCD-19Lu
Method: as §1, §2, §3, §4, §5

[4] = test system: COLO 320/MDR-LRP multidrug-resistant human colonic adenocarcinoma cells; assay: MTT antiproliferative assay, COLO 320; type: cell-based; conditions: COLO 320 (multidrug-resistant), read-out: IC50 (µM) ± SD COLO 320
Method: as §1, §2, §3, §4, §5

[5] = test system: HT22 cells (mouse hippocampal neuroblastoma cell line); design: method as in doi:10.1007/s11101-018-9561-5, PMID 25794817; conditions: 100 µM, 24 h; cited from earlier work

SMILES	CI at ED50 (combination index) [1]	IC50 ([2]; Homo sapiens, COLO 205, 72 h)	IC50 [3]	IC50 ([4]; Homo sapiens, COLO 320, 72 h)	Interaction [1]	decrease in MTT reduction [5]	IC50 ([2]; 72 h)	IC50 ([4]; 72 h)
C=Cc1cc(C=O)cc2c1-c1ccc(O)c(C)c1CC2 [Compound 14]	0.219	57.2 ± 3.98 µM	66.4 ± 1.58 µM	39.58 ± 0.27 µM	–	–	–	–
C=Cc1c(C)c(O)cc2c1-c1ccc(OC)c(C)c1CC2 [Compound 16, compressin A]	2.312	35.8 ± 2.7 µM	28 ± 2.73 µM	19.2 ± 0.32 µM	antagonism (1.45 < CI < 3.3, antagonism)	–	–	–
C=Cc1cc(O)cc2c1-c1ccc(OC)c(C)c1CC2 [Compound 12]	1.347	34.73 ± 0.1 µM	28.7 ± 1.11 µM	25.5 ± 2.05 µM	moderate antagonism	–	–	–
C=CC1=C(C)C(=O)C=C2c3ccc(O)c(C)c3CCC21O (centres unmarked) [juncuenin D, reference compound]	–	–	–	–	–	23.7%	–	–
C=Cc1cc2c(ccc3c(C)c(O)ccc32)cc1CO [Compound 2, tenuin B]	–	48.4 µM	96.08 ± 0.82 µM	38.3 µM	very strong synergism (CI < 0.1 indicates very strong synergism)	–	48.4 ± 1.03 µM	38.3 ± 1.84 µM
C=Cc1cc(O)cc2c1-c1cc(-c3cc4c(c(C)c3O)CCc3cc(O)cc(C=C)c3-4)c(O)c(C)c1CC2 [Compound 19, effususin A]	–	10.9 µM	18.8 ± 0.06 µM	17.3 ± 0.87 µM	–	–	10.9 ± 0.51 µM	–
C=Cc1cc(C(=O)O)cc2c1-c1ccc(O)c(C)c1CC2 [Compound 15]	1.927	45.4 ± 2.16 µM	> 100 µM	47.6 ± 1.01 µM	antagonism (1.45 < CI < 3.3, antagonism)	–	–	–
C=Cc1c(CO)ccc2c1ccc1c(C)c(O)ccc12 [Compound 9]	1.427	> 100 µM	75.3 ± 2.59 µM	42.6 ± 2.98 µM	moderate antagonism	–	–	–
C=Cc1c(C)c(O)cc2c1CCc1c-2ccc(O)c1C [juncuenin B, reference compound]	–	–	–	–	–	13.6%	–	–
C=Cc1cc(O)cc2c1-c1cc(-c3c(O)cc4c(c3C=C)-c3ccc(O)c(C)c3CC4)c(O)c(C)c1CC2 [Compound 5, 1,1′-dimethyl-5,5′-divinyl-9,9′,10,10′-tetrahydro-[6,3′-biphenanthrene]-2,2′,7,7′-tetraol]	0.433	11.6 µM	13.8 ± 0.82 µM	12 ± 1.58 µM	synergism (0.3 < CI < 0.7, synergism)	–	11.6 ± 0.22 µM	–
C=Cc1cc(O)c(C)c2c1-c1ccc(O)c(C)c1CC2 [Compound 17, 2,7-dihydroxy-1,8-dimethyl-5-vinyl-9,10-dihydrophenanthrene]	0.670	43.2 ± 3.82 µM	64.7 ± 3.36 µM	35.1 ± 1.1 µM	synergism (0.3 < CI < 0.7, synergism)	–	–	–
